In the Kinase Knowledgebase extract (Sharma et al. 2016):

Biological target: MAPK14 (human) (UniProt Q16539)
Experiment: Inhibition of MAPK14 Kinase Activity

MAPK14 (human), sequence (Q16539 whole entry, looked up): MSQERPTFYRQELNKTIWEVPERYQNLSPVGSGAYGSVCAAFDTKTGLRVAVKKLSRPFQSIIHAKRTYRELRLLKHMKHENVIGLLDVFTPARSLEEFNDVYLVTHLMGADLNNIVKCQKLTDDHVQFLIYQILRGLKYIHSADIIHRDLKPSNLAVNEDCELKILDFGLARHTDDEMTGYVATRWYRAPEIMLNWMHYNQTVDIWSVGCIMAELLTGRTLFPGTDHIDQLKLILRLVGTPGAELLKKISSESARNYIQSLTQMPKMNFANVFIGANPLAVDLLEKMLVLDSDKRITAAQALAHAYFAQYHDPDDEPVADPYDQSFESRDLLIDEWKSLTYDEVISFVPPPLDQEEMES

IC50 [µM]	Structure (SMILES)
≤ 10	CN(C)Cc1cc(Cl)c(N2CC(Cc3ccc(F)cc3F)CCC2=O)c(Cl)c1 (configuration not stated)
≤ 10	CC(=O)Nc1cnc(Cl)c(N2CC(Sc3ccc(F)cc3F)CCC2=O)c1Cl (configuration not stated)
≤ 10	CN1CC(Cc2ccccc2F)CN(c2c(Cl)cccc2Cl)C1=O (configuration not stated)
≤ 10	O=C1CCC(Sc2ccc(F)cc2F)CN1c1c(Cl)cc(CO)nc1Cl (configuration not stated)
≤ 10	O=C1CCC(Cc2ccccc2Cl)CN1c1c(Cl)ccnc1Cl (configuration not stated)
≤ 10	O=C1CCC(Oc2ccc(Cl)cc2)CN1C1C(Cl)CCCC1Cl (configuration not stated)
≤ 10	O=C1CCC(Sc2cccc3ccccc23)CN1c1c(Cl)ccnc1Cl (configuration not stated)
≤ 10	O=C1CCC(Oc2ccc(Cl)cc2Cl)CN1c1c(Cl)ccnc1Cl (configuration not stated)
≤ 10	O=C(Cc1ccccc1)Nc1cnc(Cl)c(N2CC(Oc3ccc(F)cc3F)CCC2=O)c1Cl (configuration not stated)
≤ 10	COC(=O)CCc1cc(Cl)c(N2CC(Cc3ccc(F)cc3F)CCC2=O)c(Cl)c1 (configuration not stated)
≤ 10	Nc1cc(Cl)c(N2CC(Cc3ccc(F)cc3F)OCC2=O)c(Cl)c1 (configuration not stated)
≤ 10	CC(=O)NCc1ccccc1CC1CCC(=O)N(c2c(Cl)cccc2Cl)C1 (configuration not stated)
≤ 10	Cc1cccc(C)c1N1CC(Cc2ccc(F)cc2F)CCC1=O (configuration not stated)
≤ 10	O=C1CCC(Sc2ccccc2Cl)CN1c1c(Cl)ccnc1Cl (configuration not stated)
≤ 10	O=C1NCC(Cc2cccc3ccccc23)CN1c1c(Cl)cccc1Cl (configuration not stated)
≤ 10	O=C1CCC(Sc2cc(F)cc(F)c2)CN1C1C(Cl)CCCC1Cl (configuration not stated)
≤ 10	Cc1nc[nH]c1CNc1cc(Cl)c(N2CC(Cc3ccccc3)CCC2=O)c(Cl)c1 (configuration not stated)
≤ 10	O=C1CCC(Cc2ccccc2)CN1c1c(Cl)csc1Cl (configuration not stated)
≤ 10	O=C1CCC(Sc2cccc3ccccc23)CN1c1c(Cl)cncc1Cl (configuration not stated)
≤ 10	CN(C)CCNC(=O)c1cc(Cl)c(N2CC(Cc3ccc(F)cc3F)CCC2=O)c(Cl)c1 (configuration not stated)
≤ 10	O=C1CCC(Sc2ccc(F)cc2F)CN1C1C(Cl)CC(CO)CC1Cl (configuration not stated)

IC50 [µM]	Structure (SMILES)
≤ 10	O=C1CCC(Cc2ccccc2)CN1c1c(Cl)cncc1Cl (configuration not stated)
≤ 10	O=C(Cc1ccccc1)Nc1ccc(Cl)c(N2CC(Cc3ccc(F)cc3F)CNC2=O)c1Cl (configuration not stated)
≤ 10	Cc1ccccc1SC1CCC(=O)N(c2c(Cl)csc2Cl)C1 (configuration not stated)
≤ 10	O=C1CCC(Cc2ccc(F)cc2F)CN1c1c(Cl)cc(N2CCNCC2)cc1Cl (configuration not stated)
≤ 10	CC(C)(C)OC(=O)Nc1cc(Cl)c(N2CC(C(O)c3ccc(F)cc3F)CCC2=O)c(Cl)c1 (configuration not stated)
≤ 10	NC(=O)NCCNc1cc(Cl)c(N2CC(Cc3ccc(F)cc3F)CCC2=O)c(Cl)c1 (configuration not stated)
≤ 10	Cc1ccccc1OC1CCC(=O)N(c2c(Cl)cncc2Cl)C1 (configuration not stated)
≤ 10	Cc1ccc(SC2CCC(=O)N(c3c(Cl)cccc3Cl)C2)cc1 (configuration not stated)
≤ 10	Cc1cc(C(=O)N2CCN(C)CC2)cc(C)c1N1CC(Cc2ccc(F)cc2F)CCC1=O (configuration not stated)
≤ 10	NCc1ccccc1CC1CCC(=O)N(c2c(Cl)cccc2Cl)C1 (configuration not stated)
≤ 10	Cc1ccccc1SC1CCC(=O)N(c2c(Cl)ccnc2Cl)C1 (configuration not stated)
≤ 10	O=C1CCC(Cc2ccccc2)CN1c1c(Cl)cc([N+](=O)[O-])cc1Cl (configuration not stated)
≤ 10	O=C1OCC(Cc2ccc(F)cc2F)CN1c1c(Cl)cccc1Cl (configuration not stated)
≤ 10	Cc1ccc(CC2CNC(=O)N(c3c(Cl)cccc3Cl)C2)cc1 (configuration not stated)
≤ 10	O=C1CCC(Cc2cc(Cl)cc(Cl)c2)CN1C1C(Cl)CCCC1Cl (configuration not stated)
≤ 10	NC1CCC(Cl)C(N2CC(Cc3ccc(F)cc3F)CCC2=O)C1Cl (configuration not stated)
≤ 10	O=C(Nc1ccc(CC2CCC(=O)N(c3c(Cl)cccc3Cl)C2)cc1)C1CCCCC1 (configuration not stated)
≤ 10	O=C1CCC(Oc2ccc(F)cc2F)CN1c1c(Cl)cccc1Cl (configuration not stated)
≤ 10	C[C@@H]1C[C@H](Cc2ccc(F)cc2F)CN(c2c(Cl)cc(Br)cc2Cl)C1=O
≤ 10	O=C1CCC(Sc2ccc(F)cc2F)CN1c1c(Cl)sc(O)c1Cl (configuration not stated)
≤ 10	O=C1CCC(Sc2ccccc2)CN1c1c(Cl)csc1Cl (configuration not stated)

IC50 [µM]	Structure (SMILES)
≤ 10	O=C(O)c1cc(Cl)c(N2CC(Cc3ccc(F)cc3F)CCC2=O)c(Cl)c1 (configuration not stated)
≤ 10	CC(=O)N(C)c1cc(Cl)c(N2CC(Cc3ccc(F)cc3F)CCC2=O)c(Cl)c1 (configuration not stated)
≤ 10	O=C1CCC(Cc2ccc(Cl)cc2)CN1c1c(Cl)csc1Cl (configuration not stated)
≤ 10	O=C1CCC(Cc2ccccc2)CN1c1c(Cl)ccnc1Cl (configuration not stated)
≤ 10	COc1ccccc1CC1CCC(=O)N(C2C(Cl)CCCC2Cl)C1 (configuration not stated)
≤ 10	O=C1CCC(Cc2ccc(F)cc2F)CN1c1c(Cl)sc(CO)c1Cl (configuration not stated)
≤ 10	O=C(CNc1cc(Cl)c(N2CC(Cc3ccc(F)cc3F)CCC2=O)c(Cl)c1)NCCO (configuration not stated)
≤ 10	O=C1CCC(Sc2ccc(F)cc2)CN1c1c(Cl)ccnc1Cl (configuration not stated)
≤ 10	CC(C)(C)OC(=O)Nc1cc(Cl)c(N2CC(Cc3ccccc3F)CCC2=O)c(Cl)c1 (configuration not stated)
≤ 10	CS(=O)(=O)N1CCC(Nc2cc(Cl)c(N3CC(Cc4ccc(F)cc4F)CCC3=O)c(Cl)c2)CC1 (configuration not stated)
≤ 10	O=C1CC[C@H](Cc2ccc(F)cc2F)CN1c1c(Cl)cccc1Cl
≤ 10	O=C1CCC(Cc2cccc3ccccc23)CN1c1c(Cl)cccc1Cl (configuration not stated)
≤ 10	O=C1CSC(Cc2ccc(F)cc2F)CN1c1c(Cl)cc(O)cc1Cl (configuration not stated)
≤ 10	Cc1ccccc1CC1CSC(=O)N(c2c(Cl)cccc2Cl)C1 (configuration not stated)
≤ 10	Cc1ccc(SC2CCC(=O)N(c3c(Cl)cccc3Cl)C2)c(C)c1 (configuration not stated)
≤ 10	O=C1CSC(Cc2ccc(F)cc2F)CN1c1c(Cl)cccc1Cl (configuration not stated)
≤ 10	CN1CCN(Cc2cc(Cl)c(N3CC(Cc4ccc(F)cc4F)CCC3=O)c(Cl)c2)CC1 (configuration not stated)
≤ 10	Nc1cc(Cl)c(N2CC(Cc3ccc(F)cc3F)CCC2=O)c(Cl)n1 (configuration not stated)
≤ 10	Cc1cccc(C)c1N1CC(Cc2ccccc2OCC(=O)Nc2cc(C(C)(C)C)nn2C)CCC1=O (configuration not stated)
≤ 10	Nc1ccc(Cl)c(N2CC(Cc3ccc(F)cc3F)CNC2=O)c1Cl (configuration not stated)
≤ 10	O=C(NCc1ccccc1CC1CCC(=O)N(c2c(Cl)cccc2Cl)C1)NC1CCCCC1 (configuration not stated)

IC50 [µM]	Structure (SMILES)
≤ 10	O=C1CCC(Oc2ccccc2F)CN1C1C(Cl)CCCC1Cl (configuration not stated)
≤ 10	Cc1cc(CCCCC(=O)O)cc(C)c1N1CC(Cc2ccc(F)cc2F)CCC1=O (configuration not stated)
≤ 10	Cc1ccc(SC2CCC(=O)N(c3c(Cl)cncc3Cl)C2)c(C)c1 (configuration not stated)
≤ 10	O=C1CCC(Oc2ccccc2F)CN1c1c(Cl)csc1Cl (configuration not stated)
≤ 10	O=C1CCC(Cc2ccc(F)cc2)CN1c1c(Cl)ccnc1Cl (configuration not stated)
≤ 10	CNc1ncc(Cl)c(N2CC(Cc3ccc(F)cc3F)CCC2=O)c1Cl (configuration not stated)
≤ 10	COc1ccc(CC2CNC(=O)N(c3c(Cl)cccc3Cl)C2)cc1 (configuration not stated)
≤ 10	O=C1CCC(Cc2ccc3ccccc3c2)CN1C1C(Cl)CCCC1Cl (configuration not stated)
≤ 10	O=C1CCC(Cc2ccccc2F)CN1c1c(Cl)ccnc1Cl (configuration not stated)
≤ 10	O=C1CCC(Oc2ccc(F)cc2)CN1c1c(Cl)ccnc1Cl (configuration not stated)
≤ 10	O=C1CCC(Oc2ccc(F)cc2F)CN1c1c(Cl)cncc1Cl (configuration not stated)
≤ 10	Nc1sc(Cl)c(N2CC(Sc3ccc(F)cc3F)CCC2=O)c1Cl (configuration not stated)
≤ 10	Cc1ccccc1CC1CNC(=O)N(c2c(Cl)cccc2Cl)C1 (configuration not stated)
≤ 10	O=C1CCC(Cc2ccccc2Cl)CN1c1c(Cl)cccc1Cl (configuration not stated)
≤ 10	O=C1CCC(Oc2ccc(F)cc2F)CN1c1c(Cl)ccc(CO)c1Cl (configuration not stated)
≤ 10	Cc1ccc(CC2CCC(=O)N(c3c(Cl)ccnc3Cl)C2)c(C)c1 (configuration not stated)
≤ 10	O=C1COC(Cc2cccc3ccccc23)CN1c1c(Cl)cccc1Cl (configuration not stated)
≤ 10	O=C1CCC(Oc2ccc(F)cc2F)CN1C1C(Cl)CC(CO)CC1Cl (configuration not stated)
≤ 10	COc1ccc(CC2CCC(=O)N(C3C(Cl)CCCC3Cl)C2)cc1 (configuration not stated)
